Laboratory results as given in US10322111B2, “Chemokine receptor binding heterocyclic compounds with enhanced efficacy” (Genzyme Corporation, priority 2001, dated 2019).

Assays:
bone marrow stem cells = conditions: rats, coronary artery ligation, administered within hours after cardiac ischemia, with or without rhG-CSF
Protocol: Adult rats are anesthetized and a thoracotomy is performed. The descending branch of the left coronary artery is ligated and not reperfused. […] Control rats are not treated with the reagents. The animals are monitored at one-week intervals by echocardiography and MRI. […] On the day of sacrifice, the hemodynamic functions are analyzed for left ventricle-end diastolic pressure, left ventricle-developed pressure and the rate of rise and fall of left ventricle pressure. The heart is then arrested in diastole and perfused via the abdominal aorta to flush residual blood from the vascular network of the myocardium. […] Several slices are made through the fixed heart and these are embedded in paraffin and sections. The sections are stained and analyzed by light microscopy to determine the size of the infarct in the treated and control animals. […] The immunohistochemical analysis involves the identification of transcription factors and surface markers expressed in early stages of myocyte development.

[1] = system: circulating CD34+ progenitor/stem cells; conditions: single dose of 80 μg/kg, cited from earlier work

Compound: c1cc(CN2CCCNCCNCCCNCC2)ccc1CN1CCCNCCNCCCNCC1 [AMD-3100]
- cardiac remodeling and scar formation (bone marrow stem cells): block to cardiac remodeling and scar formation
- mobilization of bone marrow stem cells (bone marrow stem cells): mobilizes bone marrow stem cells rapidly
- regeneration of myocardium (bone marrow stem cells): regeneration of the dead myocardium
- peak increase in circulating CD34+ progenitor/stem cells ([1]; 6 hour time point): 6 fold
- WBC count [1]: 17,000 μl
